Here are results for two compounds from publication PMC5046141, “Discovery of Isoquinolinoquinazolinones as a Novel Class of Potent PPARγ Antagonists with Anti-adipogenic Effects” (Scientific Reports, 2016).

This assay has as its target T1, C285G mutant PPARγ2 (Mus musculus, UniProt P37238, C313G).
T1 construct: expressed in transfected cells; host or cells: 3T3-L1, pCS4 CMV vector
T1 sequence (P37238 1-505 C313G): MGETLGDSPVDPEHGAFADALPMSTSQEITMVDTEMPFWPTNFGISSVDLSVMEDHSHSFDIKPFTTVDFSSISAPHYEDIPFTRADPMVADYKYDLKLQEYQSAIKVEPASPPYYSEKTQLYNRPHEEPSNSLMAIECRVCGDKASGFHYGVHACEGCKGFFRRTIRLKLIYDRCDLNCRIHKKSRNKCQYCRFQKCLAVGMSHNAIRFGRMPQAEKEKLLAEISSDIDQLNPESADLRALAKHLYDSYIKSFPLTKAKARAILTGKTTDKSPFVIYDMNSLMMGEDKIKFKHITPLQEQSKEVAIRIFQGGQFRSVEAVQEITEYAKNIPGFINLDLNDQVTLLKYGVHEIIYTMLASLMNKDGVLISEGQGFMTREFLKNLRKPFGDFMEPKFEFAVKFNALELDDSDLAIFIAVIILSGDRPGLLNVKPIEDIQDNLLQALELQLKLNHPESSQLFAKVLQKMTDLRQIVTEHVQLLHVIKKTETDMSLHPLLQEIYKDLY
T1 sequence (P28700 1-467 partner): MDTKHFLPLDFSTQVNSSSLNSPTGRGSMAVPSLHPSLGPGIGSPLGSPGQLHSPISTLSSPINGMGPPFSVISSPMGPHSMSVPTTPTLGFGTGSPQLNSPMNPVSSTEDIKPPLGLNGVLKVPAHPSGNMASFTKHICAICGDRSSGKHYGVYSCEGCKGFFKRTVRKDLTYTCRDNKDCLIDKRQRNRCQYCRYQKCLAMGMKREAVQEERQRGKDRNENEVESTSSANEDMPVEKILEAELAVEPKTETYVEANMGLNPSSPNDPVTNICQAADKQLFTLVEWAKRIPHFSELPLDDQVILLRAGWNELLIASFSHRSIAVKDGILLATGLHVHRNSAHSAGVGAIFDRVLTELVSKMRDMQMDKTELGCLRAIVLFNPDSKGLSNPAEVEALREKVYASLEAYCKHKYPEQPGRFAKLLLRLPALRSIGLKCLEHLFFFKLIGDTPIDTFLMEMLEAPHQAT
The assay can be described thus: PPRE-Luc reporter assay with C285G mutant PPARγ2 in 3T3-L1 cells. In kind it is cell-based. The settings on record: 5 μM, 12 h. Here is the method: To investigate the contribution site on the PPARγ2 to the interaction with 8o, we generated mutant forms of the PPARγ2 (Fig. 5). […] Thus, we tested Cys-to-Gly (Cys285), Arg-to-Gly (Arg288) substitution mutants of PPARγ2. […] The results indicated 8o has interaction with both Cys285 and Arg288, which are in agreement with the docking study.
Figure 5 Mutational study. Residues Cys285 and Arg288 of PPARγ are important for 8o function. The transcriptional activity was determined in 3T3-L1 cells transiently co-transfected with PPRE-driven luciferase reporter gene (PPRE-Luc) and PPARγ2 (WT) or (C285G, R288G) expression vector. After 24 h of transfection, the cells were cultured with 5 μM GW9662 and 5 μM 8o respectively for 12 h. Luciferase activity was measured after 36 h. Error bars mean ± SD of at least three experiments. ^*P < 0.05, ^**P < 0.01.
For plasmids expressing PPARγ2, full length PPARγ2 (mouse, 1518 bp: NCBI Reference Sequence: NP_035276.2) was subcloned into CMV promoter-derived mammalian expression vector (pCS4). […]
3T3-L1 cells were transfected for indicated combinations of expression plasmids along with a luciferase reporter plasmid (PPRE-Luc). […] Luciferase activities were measured using a luciferase reporter assay kit (Promega, Madison, WI, USA). […]
On the technique in general: In a reporter assay the amount or activity of a reporter protein is the signal.

With `O=C(Nc1ccccc1)c1cc([N+](=O)[O-])ccc1Cl` [GW9662, reference compound], the “effect of Cys285 to Gly substitution on the compound's inhibition of PPARγ2 activity” value is listed as “abolished the inhibitory effect”.

As to `COc1cc2cc3n(c(=O)c2cc1OC)CNc1cc(Cl)ccc1-3` [Compound 8o, 3-Chloro-10,11-dimethoxy-5H-isoquinolino[2,3-c]quinazolin-8(6H)-one], the “effect of Cys285 to Gly substitution on the compound's inhibition of PPARγ2 activity” value is “abolished the inhibitory effect”.
